Common to all, as to assay type: cell-based
Assay [1] addresses human TLR8 (Homo sapiens (Human), UniProt Q9NR97). The assay is described as follows: TLR8 inhibition reporter assay (HEK-Blue, SEAP). To be noted: HEK-Blue cells overexpressing human TLR8, R848 15.9 μM stimulation. The procedure, abridged:
(§1)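 HEK-Blue cells overexpressing the receptor carry a SEAP reporter under IFN-β minimal promoter with NF-κB/AP-1 sites. Compounds (0.05 nM–50 μM final) were preincubated 30 min at room temperature, then cells were stimulated with gardiquimod 7.5 μM (TLR7), R848 15.9 μM (TLR8) or ODN2006 5 nM (TLR9) for 22 h at 37 °C.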
Background: A reporter such as luciferase makes a cellular process visible.

Assay [2] addresses human TLR9 (Homo sapiens (Human), UniProt Q9NR96). Nature of the assay: TLR9 inhibition reporter assay (HEK-Blue, SEAP). To be noted: HEK-Blue cells overexpressing human TLR9, ODN2006 5 nM stimulation. The procedure, abridged: as §1
For assay [3], the target named is human TLR7 (Homo sapiens (Human), UniProt Q9NYK1). The assay is described as follows: TLR7 inhibition reporter assay (HEK-Blue, SEAP). Conditions: HEK-Blue cells overexpressing human TLR7, gardiquimod 7.5 μM stimulation. The procedure, abridged:
as §1

Usually IC50 stands for the concentration that gives 50% inhibition. Low values mean inhibition by little substance, high ones a need for much substance.

Sequence of human TLR7 (Q9NYK1 27-1049): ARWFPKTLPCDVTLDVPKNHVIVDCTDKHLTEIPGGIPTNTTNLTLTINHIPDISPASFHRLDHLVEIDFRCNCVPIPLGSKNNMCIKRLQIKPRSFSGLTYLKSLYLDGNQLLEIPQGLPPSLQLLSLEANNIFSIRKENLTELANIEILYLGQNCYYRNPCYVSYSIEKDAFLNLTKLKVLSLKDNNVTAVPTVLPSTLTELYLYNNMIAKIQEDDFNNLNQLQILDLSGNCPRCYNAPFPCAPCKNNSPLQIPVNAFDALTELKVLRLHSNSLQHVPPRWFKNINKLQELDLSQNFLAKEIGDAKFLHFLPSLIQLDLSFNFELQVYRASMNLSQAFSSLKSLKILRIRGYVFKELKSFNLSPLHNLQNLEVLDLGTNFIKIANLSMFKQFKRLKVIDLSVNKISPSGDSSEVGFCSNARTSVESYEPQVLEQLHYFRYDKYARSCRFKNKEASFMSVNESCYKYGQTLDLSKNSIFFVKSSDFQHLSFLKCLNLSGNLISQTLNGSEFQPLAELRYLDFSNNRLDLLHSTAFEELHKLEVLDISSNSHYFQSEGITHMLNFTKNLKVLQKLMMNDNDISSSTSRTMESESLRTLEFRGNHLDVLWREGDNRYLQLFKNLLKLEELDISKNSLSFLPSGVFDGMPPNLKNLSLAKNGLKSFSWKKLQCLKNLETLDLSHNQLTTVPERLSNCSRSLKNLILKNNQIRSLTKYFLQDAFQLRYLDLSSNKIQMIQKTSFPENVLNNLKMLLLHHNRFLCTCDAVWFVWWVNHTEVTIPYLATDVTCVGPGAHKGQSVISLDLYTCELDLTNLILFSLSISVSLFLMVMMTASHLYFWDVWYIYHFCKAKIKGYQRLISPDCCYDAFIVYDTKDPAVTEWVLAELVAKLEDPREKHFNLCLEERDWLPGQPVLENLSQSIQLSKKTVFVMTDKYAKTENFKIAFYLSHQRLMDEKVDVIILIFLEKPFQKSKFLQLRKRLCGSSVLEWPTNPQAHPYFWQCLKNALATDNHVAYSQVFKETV
Sequence of human TLR9 (Q9NR96 26-1032): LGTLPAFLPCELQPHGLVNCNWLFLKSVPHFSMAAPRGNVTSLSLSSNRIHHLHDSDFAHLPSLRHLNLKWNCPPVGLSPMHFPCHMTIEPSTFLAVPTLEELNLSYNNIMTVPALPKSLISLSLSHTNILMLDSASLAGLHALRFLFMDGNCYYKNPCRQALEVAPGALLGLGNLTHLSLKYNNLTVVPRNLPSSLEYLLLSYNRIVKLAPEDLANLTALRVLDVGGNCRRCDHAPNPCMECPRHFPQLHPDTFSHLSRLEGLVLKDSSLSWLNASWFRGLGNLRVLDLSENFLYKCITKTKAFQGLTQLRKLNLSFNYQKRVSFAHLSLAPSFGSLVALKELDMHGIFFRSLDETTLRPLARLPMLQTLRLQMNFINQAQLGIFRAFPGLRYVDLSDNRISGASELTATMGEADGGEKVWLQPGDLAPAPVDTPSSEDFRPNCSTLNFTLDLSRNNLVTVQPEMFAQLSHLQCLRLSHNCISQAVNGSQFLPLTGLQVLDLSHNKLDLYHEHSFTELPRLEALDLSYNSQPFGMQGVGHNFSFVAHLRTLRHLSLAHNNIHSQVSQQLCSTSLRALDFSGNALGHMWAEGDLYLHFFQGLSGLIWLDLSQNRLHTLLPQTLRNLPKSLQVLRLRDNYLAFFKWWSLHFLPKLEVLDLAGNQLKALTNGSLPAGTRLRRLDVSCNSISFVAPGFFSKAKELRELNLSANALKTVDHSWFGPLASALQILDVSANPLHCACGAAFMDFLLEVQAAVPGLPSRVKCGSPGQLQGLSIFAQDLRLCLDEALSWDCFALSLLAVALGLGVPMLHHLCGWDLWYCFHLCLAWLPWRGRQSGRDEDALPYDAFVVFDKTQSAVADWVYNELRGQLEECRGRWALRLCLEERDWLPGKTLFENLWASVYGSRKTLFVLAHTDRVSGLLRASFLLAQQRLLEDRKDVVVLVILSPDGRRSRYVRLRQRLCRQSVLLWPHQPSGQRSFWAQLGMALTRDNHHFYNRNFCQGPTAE
Sequence of human TLR8 (Q9NR97 27-1041): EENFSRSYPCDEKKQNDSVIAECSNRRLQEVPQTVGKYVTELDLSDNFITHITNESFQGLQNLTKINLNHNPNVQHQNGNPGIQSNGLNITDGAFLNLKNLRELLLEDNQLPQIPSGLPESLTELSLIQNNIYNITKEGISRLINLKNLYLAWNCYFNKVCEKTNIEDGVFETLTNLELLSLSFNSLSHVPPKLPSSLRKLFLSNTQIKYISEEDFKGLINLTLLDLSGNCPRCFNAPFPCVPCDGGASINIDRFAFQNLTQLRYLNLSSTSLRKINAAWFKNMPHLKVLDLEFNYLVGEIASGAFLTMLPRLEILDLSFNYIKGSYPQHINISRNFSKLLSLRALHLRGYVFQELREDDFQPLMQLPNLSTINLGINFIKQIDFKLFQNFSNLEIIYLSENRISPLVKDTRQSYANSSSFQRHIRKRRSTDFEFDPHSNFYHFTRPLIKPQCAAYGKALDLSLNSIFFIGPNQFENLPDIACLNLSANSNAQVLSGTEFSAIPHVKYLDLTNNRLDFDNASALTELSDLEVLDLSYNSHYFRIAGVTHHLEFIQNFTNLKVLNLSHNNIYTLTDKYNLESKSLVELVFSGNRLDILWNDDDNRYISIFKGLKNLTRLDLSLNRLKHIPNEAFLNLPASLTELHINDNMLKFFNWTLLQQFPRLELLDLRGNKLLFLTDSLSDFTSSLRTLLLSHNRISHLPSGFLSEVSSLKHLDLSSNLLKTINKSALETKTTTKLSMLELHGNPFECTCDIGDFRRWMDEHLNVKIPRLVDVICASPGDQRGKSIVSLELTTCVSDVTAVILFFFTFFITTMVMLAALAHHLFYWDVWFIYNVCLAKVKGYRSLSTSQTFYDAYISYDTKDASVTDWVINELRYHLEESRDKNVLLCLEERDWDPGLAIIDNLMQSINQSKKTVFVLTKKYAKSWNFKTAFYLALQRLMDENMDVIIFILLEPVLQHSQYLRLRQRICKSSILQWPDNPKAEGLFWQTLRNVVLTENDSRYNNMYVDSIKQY

On to `COc1ccc(-c2[nH]c3ccc(-c4ccc(OCCCN(C)C)nc4)cc3c2C(C)C)cc1OC` [Example 421, 3-((5-(2-(3,4-dimethoxyphenyl)-3-isopropyl-1H-indol-5-yl)pyridin-2-yl)oxy)-N,N-dimethylpropan-1-amine], for which the figures for the IC50 in assay [1], in assay [2] and in assay [3] were 12 nM, 2.75 µM and 63 nM, respectively.

In the case of `COc1ccc(-c2[nH]c3ccc(-c4ccnc(N5CCN(C6CCCC6)CC5)c4)cc3c2C(C)C)cc1OC` [Example 426, 5-(2-(4-cyclopentylpiperazin-1-yl)pyridin-4-yl)-2-(3,4-dimethoxyphenyl)-3-isopropyl-1H-indole], the IC50 in assay [1] was 56 nM; in assay [2], 1.45 µM; in assay [3] it was 838 nM.

For the compound `COc1ccc(-c2[nH]c3ccc(-c4ccnc(N5CCN(C6CCC6)CC5)c4)cc3c2C(C)C)cc1OC` [Example 427, 5-(2-(4-cyclobutylpiperazin-1-yl)pyridin-4-yl)-2-(3,4-dimethoxyphenyl)-3-isopropyl-1H-indole], the IC50 was found to be 56 nM in assay [1], 2.53 µM in assay [2] and 960 nM in assay [3].

With `CC(C)c1c(-c2ccnc3[nH]ncc23)[nH]c2ccc(-c3ccnn3C)cc12` [Example 428, 4-(3-isopropyl-5-(1-methyl-1H-pyrazol-5-yl)-1H-indol-2-yl)-1H-pyrazolo[3,4-b]pyridine], the results for the IC50 in assay [1], in assay [2] and in assay [3] were 12 nM, 14.5 µM and 194 nM, respectively.

Consider `COc1ccc(-c2[nH]c3ccc(-c4cnc(N5CCN(CCC(C)O)CC5)nc4)cc3c2C(C)C)cc1OC` (stereo not drawn) [Example 431, 4-(4-(5-(2-(3,4-dimethoxyphenyl)-3-isopropyl-1H-indol-5-yl)pyrimidin-2-yl)piperazin-1-yl)butan-2-ol], for which the figures for the IC50 in assay [1], in assay [2] and in assay [3] were 31 nM, 3.3 µM and 145 nM, respectively.

`COc1ccc(-c2[nH]c3ccc(-c4cnc(N5CCN(C)CC5)nc4)cc3c2C(C)C)cc1OC` [Example 432, 2-(3,4-dimethoxyphenyl)-3-isopropyl-5-(2-(4-methylpiperazin-1-yl)pyrimidin-5-yl)-1H-indole]: the IC50 was 17 nM in assay [1], 3.24 µM in assay [2] and 65 nM in assay [3].

Regarding `COc1cc(-c2ccc3[nH]c(-c4ccnc5[nH]ncc45)c(C(C)C)c3c2)cnc1OC` [Example 434, 4-(5-(5,6-dimethoxypyridin-3-yl)-3-isopropyl-1H-indol-2-yl)-1H-pyrazolo[3,4-b]pyridine], the results for the IC50 in assay [1], in assay [2] and in assay [3] were 54 nM, 45.2 µM and 124 nM, respectively.

On to `COc1ccc(-c2[nH]c3ccc(-c4cnc(N5CCN(C6CCCC6)CC5)nc4)cc3c2C(C)C)cc1OC` [Example 435, 5-(2-(4-cyclopentylpiperazin-1-yl)pyrimidin-5-yl)-2-(3,4-dimethoxyphenyl)-3-isopropyl-1H-indole], for which the IC50 in assay [1] worked out at 241 nM; in assay [2] it was 3.65 µM; in assay [3] it was 1550 nM.

Take `COc1ccc(-c2[nH]c3ccc(-c4cnc(N5CCN(C6CCC6)CC5)nc4)cc3c2C(C)C)cc1OC` [Example 436, 5-(2-(4-cyclobutylpiperazin-1-yl)pyrimidin-5-yl)-2-(3,4-dimethoxyphenyl)-3-isopropyl-1H-indole]: the IC50 in assay [1] turned out to be 331 nM; in assay [2], 11.1 µM; in assay [3], 1490 nM.

For the compound `CC(C)c1c(-c2ccnc3[nH]ncc23)[nH]c2ccc(-c3c[nH]nc3C(F)(F)F)cc12` [Example 438, 4-(3-isopropyl-5-(3-(trifluoromethyl)-1H-pyrazol-4-yl)-1H-indol-2-yl)-1H-pyrazolo[3,4-b]pyridine], the IC50 in assay [1] was 10 nM; in assay [2], 38 µM; in assay [3] it was 947 nM.

Take `CC(C)c1c(-c2ccnc3[nH]ncc23)[nH]c2ccc(-c3noc(C[C@@H]4CCCN4)n3)cc12` [Example 439, (S)-3-(3-isopropyl-2-(1H-pyrazolo[3,4-b]pyridin-4-yl)-1H-indol-5-yl)-5-(pyrrolidin-2-ylmethyl)-1,2,4-oxadiazole]: the IC50 came to 3.3 nM in assay [1], 2.14 µM in assay [2] and 134 nM in assay [3].

For `CCc1c(-c2ccc(OC)c(OC)c2)[nH]c2ccc(-c3noc([C@@H](N)Cc4c[nH]cn4)n3)cc12` [Example 440, (S)-1-(3-(2-(3,4-dimethoxyphenyl)-3-ethyl-1H-indol-5-yl)-1,2,4-oxadiazol-5-yl)-2-(1H-imidazol-4-yl)ethan-1-amine], the IC50 in assay [1] came to 123 nM; in assay [2], 19.9 µM; in assay [3], 647 nM.

Turning to `CCc1c(-c2ccc(OC)c(OC)c2)[nH]c2ccc(-c3noc(C4CC(=O)N(C)C4)n3)cc12` (stereo not drawn) [Example 441, 4-(3-(2-(3,4-dimethoxyphenyl)-3-ethyl-1H-indol-5-yl)-1,2,4-oxadiazol-5-yl)-1-methylpyrrolidin-2-one], the IC50 in assay [1] was 356 nM; in assay [2] it was over 50 µM; in assay [3], 3290 nM.

In the case of `CCc1c(-c2ccc(OC)c(OC)c2)[nH]c2ccc(-c3noc([C@H]4CCC[C@@]4(C)N)n3)cc12` [Example 442, (1R,2S)-2-(3-(2-(3,4-dimethoxyphenyl)-3-ethyl-1H-indol-5-yl)-1,2,4-oxadiazol-5-yl)-1-methylcyclopentan-1-amine], the IC50 in assay [1] is 90 nM; in assay [2], 4.58 µM; in assay [3] it was 903 nM.

In the case of `CCc1c(-c2ccc(OC)c(OC)c2)[nH]c2ccc(-c3noc(C4CCN(Cc5ccccc5)C4)n3)cc12` (stereo not drawn) [Example 443, 5-(1-benzylpyrrolidin-3-yl)-3-(2-(3,4-dimethoxyphenyl)-3-ethyl-1H-indol-5-yl)-1,2,4-oxadiazole], the IC50 in assay [1] came out at 740 nM; in assay [2], 10.3 µM; in assay [3], 3280 nM.

Turning to `CCc1c(-c2ccc(OC)c(OC)c2)[nH]c2ccc(-c3noc(C4CCN(Cc5ccccc5)CC4)n3)cc12` [Example 444, 5-(1-benzylpiperidin-4-yl)-3-(2-(3,4-dimethoxyphenyl)-3-ethyl-1H-indol-5-yl)-1,2,4-oxadiazole], the results for the IC50 in assay [1], in assay [2] and in assay [3] were 443 nM, 11.2 µM and 3130 nM, respectively.

Regarding `CCc1c(-c2ccc(OC)c(OC)c2)[nH]c2ccc(-c3noc(C4CCN(C(C)C)CC4)n3)cc12` [Example 445, 3-(2-(3,4-dimethoxyphenyl)-3-ethyl-1H-indol-5-yl)-5-(1-isopropylpiperidin-4-yl)-1,2,4-oxadiazole], the IC50 in assay [1] was 37 nM; in assay [2] it was 1.85 µM; in assay [3], 338 nM.

Regarding `CC(C)c1c(-c2ccnc3[nH]ncc23)[nH]c2ccc(-c3noc(C4CCN(C(=O)CN(C)C)CC4)n3)cc12` [Example 446, 2-(dimethylamino)-1-(4-(3-(3-isopropyl-2-(1H-pyrazolo[3,4-b]pyridin-4-yl)-1H-indol-5-yl)-1,2,4-oxadiazol-5-yl)piperidin-1-yl)ethan-1-one], the IC50 in assay [1] was determined as 4 nM; in assay [2], 1.02 µM; in assay [3] it was 27 nM.

As to `CCc1c(-c2ccc(OC)c(OC)c2)[nH]c2ccc(-c3noc(CCC4CCNCC4)n3)cc12` [Example 447, 3-(2-(3,4-dimethoxyphenyl)-3-ethyl-1H-indol-5-yl)-5-(2-(piperidin-4-yl)ethyl)-1,2,4-oxadiazole], the results for the IC50 in assay [1], in assay [2] and in assay [3] were 201 nM, 3.46 µM and 740 nM, respectively.

Take `CCc1c(-c2ccnc(C)c2)[nH]c2ccc(-c3noc(CCC4CCNCC4)n3)cc12` [Example 448, 3-(3-ethyl-2-(2-methylpyridin-4-yl)-1H-indol-5-yl)-5-(2-(piperidin-4-yl)ethyl)-1,2,4-oxadiazole]: the IC50 in assay [1] amounted to 50 nM; in assay [2] it was 1.79 µM; in assay [3], 327 nM.

Turning to `CCc1c(-c2ccnc(C)c2)[nH]c2ccc(-c3noc(CCC4CCN(C(C)C)CC4)n3)cc12` [Example 449, 3-(3-ethyl-2-(2-methylpyridin-4-yl)-1H-indol-5-yl)-5-(2-(1-isopropylpiperidin-4-yl)ethyl)-1,2,4-oxadiazole], the IC50 in assay [1] was found to be 37 nM; in assay [2], 1.36 µM; in assay [3] it was 239 nM.

With `CCc1c(-c2ccc(OC)c(OC)c2)[nH]c2ccc(-c3noc(C4CCNC4)n3)cc12` (stereo not drawn) [Example 450, 3-(2-(3,4-dimethoxyphenyl)-3-ethyl-1H-indol-5-yl)-5-(pyrrolidin-3-yl)-1,2,4-oxadiazole], the IC50 came to 19 nM in assay [1], 1.69 µM in assay [2] and 121 nM in assay [3].

Regarding `CCc1c(-c2ccc(OC)c(OC)c2)[nH]c2ccc(-c3noc(CCOC)n3)cc12` [Example 451, 3-(2-(3,4-dimethoxyphenyl)-3-ethyl-1H-indol-5-yl)-5-(2-methoxyethyl)-1,2,4-oxadiazole], the IC50 in assay [1] is 1290 nM; in assay [2] it was over 50 µM; in assay [3] it was 3980 nM.

Turning to `CCc1c(-c2ccc(OC)c(OC)c2)[nH]c2ccc(-c3noc([C@H]4C[C@H]5CC[C@@H](C4)N5)n3)cc12` [Example 452, 5-((1R,3r,5S)-8-azabicyclo[3.2.1]octan-3-yl)-3-(2-(3,4-dimethoxyphenyl)-3-ethyl-1H-indol-5-yl)-1,2,4-oxadiazole], the figures for the IC50 in assay [1], in assay [2] and in assay [3] were 52 nM, 1.93 µM and 282 nM, respectively.

`CCc1c(-c2ccnc(C)c2)[nH]c2ccc(-c3noc(CN(C)C)n3)cc12` [Example 453, 1-(3-(3-ethyl-2-(2-methylpyridin-4-yl)-1H-indol-5-yl)-1,2,4-oxadiazol-5-yl)-N,N-dimethylmethanamine]: the concentration for half-maximal inhibition (IC50) came to 32 nM in assay [1], 23.2 µM in assay [2] and 703 nM in assay [3].
